Assay results from patent publication US20120251643A1, “ANTI-DIABETIC EXTRACT OF HONEYBUSH” (Zadec ApS, priority 2007, published 2012).

Key:
[1] = test system: diabetic rats (T1D and T2D); assay: Flavonoids and extract administered to diabetic rats; assay type: in vivo; settings: for results in diabetic rats compared with the extract: extracted and fractionated from Cyclopia
Method: The flavonoids specifically used were mangiferin and hesperidin.
Experiments with diabetic test animals (rats) were carried out.

[2] = Bioassay of purified fractions for anti-diabetic activity
Description: The partially purified active extract may be dissolved in methanol, and may be further fractionated by column chromatography, employing silica gel as an adsorption medium and a chloroform/30% methanol mixture as an eluent. A plurality of different fractions may be obtained, and each may be evaluated, by suitable bioassaying procedures, to determine the anti-diabetic activity thereof.
A fraction having anti-diabetic activity may preferably be further fractionated such as by column chromatography using silica gel as an adsorption medium and a 9:1 chloroform:methanol solvent, and the resultant sub-fractions bioassayed for their anti-diabetic activity. A sub-fraction displaying anti-diabetic activity may, if desired, be further fractionated and purified, conveniently using a column chromatographic procedure with silica gel as the adsorption medium and a 9:1 ethylacetate:hexane solvent. The resultant purified fractions may again be evaluated by suitable bioassay procedures for their anti-diabetic activity.

| Structure (SMILES) | results in diabetic rats compared with the extract [1] | lowering of blood sugar and diabetic symptoms ([1]; both T1D and T2D rats) | anti-diabetic activity of purified fraction [2] |
| --- | --- | --- | --- |
| COc1ccc([C@@H]2CC(=O)c3c(O)cc(O[C@@H]4O[C@H](CO[C@@H]5O[C@@H](C)[C@H](O)[C@@H](O)[C@H]5O)[C@@H](O)[C@H](O)[C@H]4O)cc3O2)cc1O [hesperidin, 7-[[6-O-(6-deoxy-α-L-mannopyranosyl)-β-D-glucopyranosyl]oxy]-2,3-dihydro-5-hydroxy-2-(3-hydroxy-4-methoxyphenyl)-4H-1-benzopyran-4-on] | results similar to those produced by the extract |  |  |
| O=c1c2cc(O)c(O)cc2oc2cc(O)c([C@@H]3O[C@H](CO)[C@@H](O)[C@H](O)[C@H]3O)c(O)c12 [mangiferin] | results similar to those produced by the extract | effective in lowering the blood sugar and generally alleviating diabetic symptoms | superior anti-diabetic activity |
